Test systems include SF-295; NCI-H226; MDA-MB-231; A498; LOX IMVI; HCT-116; SK-MEL-2; EKVX; RPMI-8226; 786-0; HT-29; SW-620; SR; A549; CCRF-CEM; TK-10; OVCAR-8; UACC-257; SK-MEL-5; T47D.
Experiment in all cases: NCI-60 cell line screen, 48 h

Each structure is given as a SMILES string.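 Dose response: 5 concentrations. Exposure: 48 h. Format: 96-well plates. Endpoint: linear interpolation; highest concentration if not reached. At the GI50, growth is halved.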 Calls of active or inactive are those of the source. Rule as the data show it: active = GI50 up to about 1.1 µM and inactive = higher.

For `BrCC(Br)(c1ccccc1)c1ccccc1-c1cc(-c2ccccc2)cc(-c2ccccc2)n1` (configuration not stated), the GI50 with SF-295 was 2.9 µM (inactive); with NCI-H226, 3.72 µM (inactive); with MDA-MB-231, 3.15 µM (inactive); in the assay on A498, 4.48 µM (inactive); in the assay with LOX IMVI it was 2.29 µM (inactive); with HCT-116, 2.81 µM (inactive). Besides, the GI50 is 1.89 µM (inactive) in the assay with SK-MEL-2; 3.85 µM (inactive) with EKVX; 0.908 µM (active) with RPMI-8226; 3.64 µM (inactive) in the assay with 786-0; 2.25 µM (inactive) in the assay on HT-29; 3.16 µM (inactive) in the assay with SW-620. Moreover, the GI50 in the assay with SR was 3.89 µM (inactive); in the assay with A549, 4.71 µM (inactive); in the assay with CCRF-CEM, 3.66 µM (inactive); with TK-10, 5.82 µM (inactive); in the assay on OVCAR-8 it was 3.06 µM (inactive); in the assay on UACC-257 it was 2.04 µM (inactive). In the assay on SK-MEL-5, the GI50 is 1.55 µM (inactive).
Take `Cc1cc2nnn(C3CCCCO3)c2cc1C` (configuration not stated): the GI50 in the assay on SF-295, with NCI-H226, with MDA-MB-231, in the assay on HCT-116, in the assay with SK-MEL-2 and in the assay on EKVX was > 100 µM (inactive) throughout. Moreover, the GI50 in the assay on 786-0 was > 100 µM (inactive); in the assay with HT-29 it was > 100 µM (inactive); in the assay with SR it was > 100 µM (inactive); in the assay with A549 it was > 100 µM (inactive); with CCRF-CEM it was > 100 µM (inactive); with T47D, 95.5 µM (inactive). The GI50 with TK-10, in the assay on OVCAR-8, in the assay on UACC-257 and in the assay on SK-MEL-5 was > 100 µM (inactive) throughout.
`COC(=O)c1cc(OC)c(OC)c(OC)c1-c1cc2c(cc1C=O)OCO2`: the GI50 with SF-295, in the assay on NCI-H226, in the assay with MDA-MB-231, in the assay on A498, in the assay on LOX IMVI and in the assay with HCT-116 was > 10 µM (inactive) each time. In addition, the GI50 in the assay on SK-MEL-2, in the assay on EKVX, in the assay with RPMI-8226, in the assay with 786-0, in the assay on HT-29 and in the assay with SW-620 was > 10 µM (inactive) each time. Moreover, the GI50 in the assay with A549, in the assay on CCRF-CEM, with T47D, with TK-10, in the assay on OVCAR-8 and with UACC-257 was > 10 µM (inactive) throughout. Also, the GI50 in the assay with SK-MEL-5 was > 10 µM (inactive).
As to `CO[C@H]1[C@@H](O)[C@H](O[C@@H]2C[C@H]3CC[C@@H]4[C@H](CC[C@]5(C)[C@@H](C6=CC(=O)OC6)CC[C@]45O)[C@@]3(C)[C@H](OC(C)=O)C2)O[C@@H](C)[C@H]1O`, the GI50 in the assay with SF-295 is 1.13 µM (inactive); with NCI-H226 it was 2.96 µM (inactive); with MDA-MB-231, 4.2 µM (inactive); with A498 it was 1.31 µM (inactive); with LOX IMVI it was 1.52 µM (inactive); in the assay on HCT-116, 0.76 µM (active). Besides, the GI50 is 2.88 µM (inactive) in the assay on SK-MEL-2; 1.29 µM (inactive) in the assay with EKVX; 2.05 µM (inactive) in the assay with RPMI-8226; 1.84 µM (inactive) with 786-0; 3.04 µM (inactive) with HT-29; 2.36 µM (inactive) in the assay with SW-620. The GI50 was 0.384 µM (active) with A549; 0.65 µM (active) with CCRF-CEM; 3.19 µM (inactive) with T47D; 1.17 µM (inactive) in the assay on TK-10; 1.73 µM (inactive) in the assay with OVCAR-8; 2.84 µM (inactive) in the assay with UACC-257. Further, in the assay with SK-MEL-5, the GI50 is 0.494 µM (active).
With `COc1ccc2c(c1)OC1c3ccccc3OCC21` (configuration not stated), the GI50 in the assay with SF-295 is > 100 µM (inactive); in the assay with NCI-H226, 47.1 µM (inactive); in the assay with MDA-MB-231, > 100 µM (inactive); with A498, > 100 µM (inactive); with LOX IMVI, 81.3 µM (inactive); in the assay on HCT-116, 77.3 µM (inactive). In addition, the GI50 in the assay on SK-MEL-2 was > 100 µM (inactive); in the assay on EKVX, 63.7 µM (inactive); in the assay with RPMI-8226, 71 µM (inactive); in the assay on 786-0, > 100 µM (inactive); with HT-29 it was 25.6 µM (inactive); in the assay on SW-620, 96.8 µM (inactive). The GI50 was 58.7 µM (inactive) with CCRF-CEM; 72.6 µM (inactive) in the assay on T47D; > 100 µM (inactive) in the assay on TK-10; > 100 µM (inactive) in the assay on OVCAR-8; > 100 µM (inactive) in the assay with UACC-257; 24.7 µM (inactive) in the assay on SK-MEL-5.
Turning to `COc1cc(NS(C)(=O)=O)ccc1Nc1c2ccccc2nc2ccccc12` [AMSACRINE], the GI50 in the assay on SF-295 was 0.104 µM (active); in the assay with NCI-H226, 0.125 µM (active); with MDA-MB-231 it was 2.41 µM (inactive); in the assay with LOX IMVI, 0.179 µM (active); in the assay on HCT-116 it was 0.955 µM (active); in the assay on SK-MEL-2, 3.7 µM (inactive). Further, the GI50 in the assay with EKVX is 2.08 µM (inactive); in the assay on RPMI-8226, 0.352 µM (active); in the assay on 786-0, 0.15 µM (active); with HT-29, 1.77 µM (inactive); in the assay on SW-620, 0.561 µM (active); with A549, 0.049 µM (active). Also, the GI50 in the assay on CCRF-CEM is 0.0561 µM (active); in the assay on T47D it was 0.441 µM (active); with TK-10, 2.63 µM (inactive); in the assay on OVCAR-8, 0.571 µM (active); in the assay on UACC-257, 2.95 µM (inactive); with SK-MEL-5, 0.319 µM (active).
With `CC(C)=CCC/C(C)=C/CC/C(C)=C/CSc1ccccc1C(=O)O` [SALIRASIB], the GI50 is 18.7 µM (inactive) in the assay with SF-295; 23.5 µM (inactive) in the assay with NCI-H226; 22.6 µM (inactive) with MDA-MB-231; 23.7 µM (inactive) in the assay with A498; 19.5 µM (inactive) in the assay on LOX IMVI; 16.7 µM (inactive) in the assay with HCT-116. Further, the GI50 is 14.4 µM (inactive) with SK-MEL-2; 18.4 µM (inactive) in the assay on EKVX; 32 µM (inactive) in the assay with RPMI-8226; 18.2 µM (inactive) in the assay on 786-0; 20.5 µM (inactive) in the assay with HT-29; 35.9 µM (inactive) in the assay on SW-620. For the same compound, the GI50 is 20.7 µM (inactive) with A549; 28.3 µM (inactive) in the assay on CCRF-CEM; > 10 µM (inactive) with T47D; 28.4 µM (inactive) in the assay on TK-10; 17.4 µM (inactive) in the assay with OVCAR-8; 34.8 µM (inactive) in the assay on UACC-257. In the assay with SK-MEL-5, the GI50 was 14.8 µM (inactive).
For `CC(=O)C(I(OS(=O)(=O)c1ccc(C)cc1)c1ccccc1)=P(c1ccccc1)(c1ccccc1)c1ccccc1`, the GI50 is 99.3 µM (inactive) in the assay on SF-295; 17.1 µM (inactive) with NCI-H226; 23.4 µM (inactive) in the assay with MDA-MB-231; > 100 µM (inactive) in the assay with A498; 21.2 µM (inactive) in the assay on HCT-116; 16 µM (inactive) with SK-MEL-2. The GI50 with EKVX was 28 µM (inactive); in the assay on RPMI-8226, 21.4 µM (inactive); in the assay on 786-0, 30.1 µM (inactive); in the assay on HT-29, 18.9 µM (inactive); in the assay on A549, 24.4 µM (inactive); in the assay on CCRF-CEM, 26.9 µM (inactive). Besides, the GI50 in the assay with T47D is 27 µM (inactive); in the assay on TK-10 it was 84.9 µM (inactive); in the assay with OVCAR-8 it was 32.6 µM (inactive); in the assay on UACC-257 it was 22.6 µM (inactive); in the assay with SK-MEL-5 it was 22.1 µM (inactive).
As for `Cc1cccc(C(C)(C)C)c1NC(=O)/C(Cc1nc2ccc([N+](=O)[O-])cc2nc1O)=N\NC(=O)C[N+](C)(C)C`, the GI50 with SF-295 is > 100 µM (inactive); in the assay on NCI-H226 it was > 100 µM (inactive); with MDA-MB-231, > 100 µM (inactive); with A498, 60.7 µM (inactive); in the assay with LOX IMVI, 51.3 µM (inactive); in the assay on HCT-116, > 100 µM (inactive). For the same compound, the GI50 with SK-MEL-2 is > 100 µM (inactive); with EKVX, > 100 µM (inactive); with RPMI-8226, 84.5 µM (inactive); with 786-0, > 100 µM (inactive); with HT-29, > 100 µM (inactive); in the assay with SW-620 it was 65.8 µM (inactive). Also, the GI50 with A549 is > 100 µM (inactive); in the assay with T47D it was 53.5 µM (inactive); with OVCAR-8 it was > 100 µM (inactive); in the assay on UACC-257, > 100 µM (inactive); in the assay with SK-MEL-5, > 100 µM (inactive).
Turning to `CC(C(N)=O)N(C)C(=O)c1cc2ccccc2[n+](Cc2ccccc2)c1` (configuration not stated), the GI50 in the assay with SF-295, with NCI-H226, with MDA-MB-231, in the assay with A498, in the assay with HCT-116 and in the assay on SK-MEL-2 was > 100 µM (inactive) each time. In addition, the GI50 with RPMI-8226, with 786-0, in the assay on HT-29, in the assay with SW-620, in the assay on A549 and in the assay on CCRF-CEM was > 100 µM (inactive) throughout. Also, the GI50 in the assay with T47D, in the assay on TK-10, with OVCAR-8, in the assay on UACC-257 and in the assay on SK-MEL-5 was > 100 µM (inactive) in each case.
Turning to `O=C(Cn1c2ccc(Br)cc2c2nc3ccccc3nc21)Nc1ccccc1`, the GI50 in the assay with SF-295 is 31.3 µM (inactive); in the assay on NCI-H226 it was 32.6 µM (inactive); in the assay on MDA-MB-231, 13.3 µM (inactive); in the assay with A498, 34 µM (inactive); with LOX IMVI, 15.8 µM (inactive); in the assay with HCT-116 it was 14.5 µM (inactive). The GI50 in the assay with SK-MEL-2 was 55 µM (inactive); in the assay with RPMI-8226, 37.7 µM (inactive); in the assay on 786-0, 14.3 µM (inactive); in the assay on HT-29, 24.8 µM (inactive); with SW-620 it was 24.8 µM (inactive); in the assay with A549, 17 µM (inactive). For the same compound, the GI50 in the assay on CCRF-CEM is 11.9 µM (inactive); in the assay on T47D it was 20.1 µM (inactive); in the assay with TK-10, 27.7 µM (inactive); in the assay on OVCAR-8, 15.1 µM (inactive); with UACC-257 it was 78.2 µM (inactive); with SK-MEL-5, 34.6 µM (inactive).

Source of the values: ChEMBL document CHEMBL1201862, “PubChem BioAssay data set” (2004).
